In test [1] the target is T1, PTGR2 (Homo sapiens, UniProt Q8N8N7). Kind of test: PPARγ luciferase reporter assay in PTGR2-transfected HEK293T cells (15-keto-PGE2-dependent). In kind it is cell-based. Conditions: cells recombinantly expressing PTGR2. The protocol:
HEK293T cells were transiently co-transfected using Polyethylenimine (Sigma) with a UAS-Luciferase reporter and a vector expressing the heterologous GAL4 DNA binding domain (DBD) or a GAL4 DNA binding domain::PPARγ ligand binding domain (LBD) chimeric protein, and full-length PTGR2. 24 hr after transfection, cells were treated either with vehicle (DMSO), 15k-PGE2 (20 μM), or fragment compounds. Rosiglitazone (2 μM), a synthetic PPARγ ligand, was used as control. 16 hr after incubation, cells were lysed in Cell Culture Lysis Reagent (Promega) and luciferase activity measured using the Luciferase Assay System (Promega).
For orientation: A reporter such as luciferase makes a cellular process visible.

Test [2] addresses T1, PTGR2. Kind of test: MS-based (SILAC) competition of FFF probe 8 labeling of endogenous PTGR2 in HEK293T cells. In kind it is binding. The procedure: For gel-based experiments, cells were grown in 6-well plates to ˜90% confluence at the time of treatment. Cells were carefully washed with Dulbecco's phosphate buffered saline (DPBS) and replenished with fresh serum-free media containing indicated FFF probe, and, if applicable, competitors or DMSO vehicle (1 mL). Following incubation at 37° C. for 30 min, cells were directly exposed to 365 nm light for 10 min. For no UV experiments, cells were incubated at 4° C. for 10 min under ambient light. For MS-based experiments, cell labeling was performed in a similar manner as described above. Modifications to this protocol included using isotopically ‘light’ and ‘heavy’ SILAC cells that were grown to near complete confluence prior to treatment in 10 cm plates. In probe-versus-control probe and probe-versus-probe experiments, isotopically light cells were treated with indicated fragment probe, while the heavy cells were treated with control probe (1), or additional FFF probe to be compared, at indicated concentrations. […]
Cells pellets were lysed in cold DPBS (100-500 µL) using a Branson Sonifier probe sonicator (10 pulses, 30% duty cycle, output setting=4). […] Protein concentration was determined using the DC Protein Assay (Bio-Rad) and absorbance read using a Tecan, Infinite F500 plate reader following manufacturer's instructions. […]

“Also recorded” adds a separate entry of the source.

T1 sequence (Q8N8N7 whole entry, the tested form may be a part): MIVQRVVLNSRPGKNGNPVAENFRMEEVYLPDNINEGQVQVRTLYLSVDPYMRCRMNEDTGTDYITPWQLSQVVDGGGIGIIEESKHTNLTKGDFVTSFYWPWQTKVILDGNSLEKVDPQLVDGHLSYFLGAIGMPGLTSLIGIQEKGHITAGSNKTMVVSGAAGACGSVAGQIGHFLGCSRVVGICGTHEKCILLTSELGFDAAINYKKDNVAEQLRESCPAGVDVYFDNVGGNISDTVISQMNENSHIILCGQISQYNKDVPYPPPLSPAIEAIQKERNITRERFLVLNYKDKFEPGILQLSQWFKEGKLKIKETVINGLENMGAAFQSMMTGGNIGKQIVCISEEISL

A word on the inhibition: it is the percentage by which the read-out fell short of the control. A high value points to strong suppression. For the compound `COc1ccccc1N1CCN(C(=O)Cc2ccccc2)CC1` [Compound 22, 1-(4-(2-Methoxyphenyl)piperazin-1-yl)-2-phenylethan-1-one], the “15-keto-PGE2-dependent PPARγ transcriptional activity” value at PTGR2 [1] is listed as “increased; also recorded: concentration-dependent rescue”. This compound also came in with an inhibition at 0.5 µM on PTGR2 [2] (500 nM) of roughly 80%. For the same compound, at PTGR2 [2] (5 μM), the “inhibition of FFF 8 labeling of endogenous PTGR2” value is on record as “complete inhibition”.

The values are drawn from patent US11535597B2, “Photoreactive ligands and uses thereof” (The Scripps Research Institute, priority 2017, dated 2022).
